The results in this text go back to PubChem BioAssay AID250 (DTP/NCI, 2004).

“And” between values parts separate entries of the source, which are not always exact repeats. Equal entries are not always repeated. Inconclusive results and toxic doses are left out.

The test system of the test is BDF1 mice, L1210 leukemia sc, survival T/C. Kind of test: NCI In Vivo Anticancer Drug Screen. Data for tumor model L1210 Leukemia (subcutaneous) in B6D2F1 (BDF1) mice. The settings on record: endpoint: median survival time, higher = longer survival. An outline of the steps:
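Antitumor activity is assessed in mice with transplanted tumors by comparing the treated group (T) with the vehicle control group (C).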

Setting [1] is: dose: 8.4 mg/kg/injection, schedule: Q01DX Z (sc), vehicle: water.

As for `Cc1c2ccncc2c(C)c2c1[nH]c1ccccc12`, the T/C runs as follows: (dose: 5.0 mg/kg/injection, schedule: Q03HX008 (ip), vehicle: steriod suspending solution) 111 % of control; (dose: 5.0 mg/kg/injection, schedule: Q03HX008 (sc), vehicle: steriod suspending solution) 100 % of control; (dose: 10.0 mg/kg/injection, schedule: Q03HX008 (ip), vehicle: steriod suspending solution) 111 % of control; (dose: 10.0 mg/kg/injection, schedule: Q03HX008 (sc), vehicle: steriod suspending solution) 111 % of control; (dose: 20.0 mg/kg/injection, schedule: Q03HX008 (sc), vehicle: steriod suspending solution) 111 % of control; (dose: 40.0 mg/kg/injection, schedule: Q03HX008 (ip), vehicle: steriod suspending solution) 150 % of control.

With `O=C(NC(CO)C(=O)O)C(Cl)Cl` (configuration not stated), the T/C (dose: 138.8 mg/kg/injection, schedule: Q01DX Z (sc), vehicle: water) was 100 % of control; the T/C (dose: 300.0 mg/kg/injection, schedule: Q01DX Z (sc), vehicle: water) is 100 % of control; the T/C (dose: 500.0 mg/kg/injection, schedule: Q01DX Z (sc), vehicle: water) was 100 % of control.

As to `CCNC(=O)c1cccnc1`, the T/C is 100 % of control under setting [1]; 100 % of control (dose: 77.8 mg/kg/injection, schedule: Q01DX Z (sc), vehicle: water); 95 % of control (dose: 130.0 mg/kg/injection, schedule: Q01DX Z (sc), vehicle: water); 100 % of control (dose: 216.0 mg/kg/injection, schedule: Q01DX Z (sc), vehicle: water); 100 % of control (dose: 360.0 mg/kg/injection, schedule: Q01DX Z (sc), vehicle: water); 100 % of control (dose: 600.0 mg/kg/injection, schedule: Q01DX Z (sc), vehicle: water). Also, the T/C (dose: 1000.0 mg/kg/injection, schedule: Q01DX Z (sc), vehicle: water) was 109 % of control.

Turning to `CN(C)c1ccc(Nc2c3ccccc3nc3ccccc23)cc1`, the T/C reads like this: (dose: 93.0 mg/kg/injection, schedule: Q01DX Z (sc), vehicle: saline) 104 % of control; (dose: 155.0 mg/kg/injection, schedule: Q01DX Z (sc), vehicle: saline) 113 % of control; (dose: 259.0 mg/kg/injection, schedule: Q01DX Z (sc), vehicle: saline) 109 % of control; (dose: 432.0 mg/kg/injection, schedule: Q01DX Z (sc), vehicle: saline) 113 % of control.

For `C[C@H](CN1CC(=O)NC(=O)C1)N1CC(=O)NC(=O)C1`, the T/C (dose: 8.0 mg/kg/injection, schedule: Q01DX009 (ip), vehicle: water) is 104 % of control; the T/C (dose: 16.0 mg/kg/injection, schedule: Q01DX009 (ip), vehicle: water) is 119 % of control; the T/C (dose: 32.0 mg/kg/injection, schedule: Q01DX009 (ip), vehicle: water) is 119 % of control and 124 % of control; the T/C (dose: 256.0 mg/kg/injection, schedule: Q01DX009 (ip), vehicle: water) is 118 % of control; the T/C (dose: 512.0 mg/kg/injection, schedule: Q01DX009 (ip), vehicle: water) is 113 % of control.

Take `CN(C)c1ccc(/C=C/c2cc[n+](C)c3ccccc23)cc1`: the T/C reads like this: (dose: 0.65 mg/kg/injection, schedule: Q01DX Z (sc), vehicle: methylcellulose (MC)) 109 % of control; (dose: 1.08 mg/kg/injection, schedule: Q01DX Z (sc), vehicle: methylcellulose (MC)) 109 % of control; (dose: 1.8 mg/kg/injection, schedule: Q01DX Z (sc), vehicle: methylcellulose (MC)) 109 % of control; (dose: 3.0 mg/kg/injection, schedule: Q01DX Z (sc), vehicle: methylcellulose (MC)) 109 % of control.

For `NC(Cc1ccc(N(CCCl)CCCl)cc1)C(=O)O` (configuration not stated), the T/C (dose: 1.09 mg/kg/injection, schedule: Q01DX Z (sc), vehicle: water) was 100 % of control; the T/C (dose: 1.81 mg/kg/injection, schedule: Q01DX Z (sc), vehicle: water) is 100 % of control; the T/C (dose: 3.0 mg/kg/injection, schedule: Q01DX Z (sc), vehicle: saline) was 100 % of control; the T/C (dose: 3.02 mg/kg/injection, schedule: Q01DX Z (sc), vehicle: water) was 95 % of control; the T/C (dose: 5.0 mg/kg/injection, schedule: Q01DX Z (sc), vehicle: saline) is 111 % of control; the T/C (dose: 5.04 mg/kg/injection, schedule: Q01DX Z (sc), vehicle: water) was 100 % of control. In addition, the T/C is 100 % of control under setting [1]; 155 % of control (dose: 14.0 mg/kg/injection, schedule: Q01DX Z (sc), vehicle: saline); 122 % of control (dose: 23.0 mg/kg/injection, schedule: Q01DX Z (sc), vehicle: saline); 122 % of control (dose: 39.0 mg/kg/injection, schedule: Q01DX Z (sc), vehicle: saline); 122 % of control (dose: 65.0 mg/kg/injection, schedule: Q01DX Z (sc), vehicle: saline); 111 % of control (dose: 108.0 mg/kg/injection, schedule: Q01DX Z (sc), vehicle: saline).

In the case of `CCC1=C(c2ccc(OC)cc2)CCC(C(=O)O)C1C` (configuration not stated), the T/C reads like this: (dose: 14.0 mg/kg/injection, schedule: Q01DX Z (sc), vehicle: steriod suspending solution) 105 % of control; (dose: 23.0 mg/kg/injection, schedule: Q01DX Z (sc), vehicle: steriod suspending solution) 100 % of control; (dose: 39.0 mg/kg/injection, schedule: Q01DX Z (sc), vehicle: steriod suspending solution) 105 % of control; (dose: 65.0 mg/kg/injection, schedule: Q01DX Z (sc), vehicle: steriod suspending solution) 100 % of control; (dose: 108.0 mg/kg/injection, schedule: Q01DX Z (sc), vehicle: steriod suspending solution) 100 % of control and 111 % of control; (dose: 180.0 mg/kg/injection, schedule: Q01DX Z (sc), vehicle: steriod suspending solution) 100 % of control and 105 % of control. Besides, the T/C reads like this: (dose: 300.0 mg/kg/injection, schedule: Q01DX Z (sc), vehicle: steriod suspending solution) 100 % of control and 111 % of control; (dose: 500.0 mg/kg/injection, schedule: Q01DX Z (sc), vehicle: steriod suspending solution) 111 % of control; (dose: 833.0 mg/kg/injection, schedule: Q01DX Z (sc), vehicle: steriod suspending solution) 100 % of control.

On to `CSc1ncnc2nc[nH]c12`, for which the T/C by setting is: (dose: 38.9 mg/kg/injection, schedule: Q01DX Z (sc), vehicle: methylcellulose (MC)) 95 % of control; (dose: 64.8 mg/kg/injection, schedule: Q01DX Z (sc), vehicle: methylcellulose (MC)) 105 % of control; (dose: 108.0 mg/kg/injection, schedule: Q01DX Z (sc), vehicle: methylcellulose (MC)) 110 % of control; (dose: 180.0 mg/kg/injection, schedule: Q01DX Z (sc), vehicle: methylcellulose (MC)) 100 % of control.

In the case of `CO[C@H](C(=O)[C@@H](O)[C@@H](C)O)[C@@H]1Cc2cc3cc(OC4CC(OC5CC(O)C(O)C(C)O5)C(O)C(C)O4)c(C)c(O)c3c(O)c2C(=O)[C@H]1OC1CC(OC2CC(OC3CC(C)(O)C(O)C(C)O3)C(O)C(C)O2)C(O)C(C)O1` (some centres not stated), the T/C by setting is: (dose: 0.12 mg/kg/injection, schedule: Q01DX009 (ip), vehicle: water) 105 % of control; (dose: 0.12 mg/kg/injection, schedule: Q01DX009 (sc), vehicle: water) 103 % of control; (dose: 0.25 mg/kg/injection, schedule: Q01DX009 (ip), vehicle: water) 94 % of control; (dose: 0.25 mg/kg/injection, schedule: Q01DX009 (sc), vehicle: water) 100 % of control and 103 % of control; (dose: 0.5 mg/kg/injection, schedule: Q01DX009 (sc), vehicle: water) 95 % of control and 110 % of control; (dose: 1.0 mg/kg/injection, schedule: Q01DX009 (ip), vehicle: water) 93 % of control. The T/C is, setting by setting: (dose: 1.0 mg/kg/injection, schedule: Q01DX009 (sc), vehicle: water) 101 % of control; (dose: 2.0 mg/kg/injection, schedule: Q01DX009 (sc), vehicle: water) 96 % of control.
